Source: patent US9169279B2, “Crystallization method and bioavailability” (THAR PHARMACEUTICALS, INC., priority 2009, dated 2015)
Read-outs that look alike come from different tables or passages of the source.

Legend:
[1] = Dog PK study: zoledronic acid in serum after IV or oral capsule dosing, enteric or non-enteric coated, with or without excess coformer (LC/MS/MS); format: in vivo, Beagle dogs; details: beagle
From the text: This can be attributed to the fact that both animals have historically been used in the safety evaluation and PK screening studies and are recommended by appropriate regulatory agencies. […] Additional tests included ID administration in rats and administration of enteric coated capsules in dogs.
USA. Some animals have surgical catheters (jugular vein and intraduodenum) were implanted to the animals prior to the studies. Beagle dogs from Marshall Farms, N.Y., USA, weighing from (9-12 kg) were used in the studies presented herein. Surgical catheters (jugular vein) were implanted prior to the studies.
The dose volume of each dog was adjusted based upon the average weight of the dog. • ii. […]
Blood samples were placed without the use of an anticoagulant and allowed to sit at room temperature for approximately 30 minutes. Samples were then centrifuged at a temperature of 4° C., at a speed of 13,000 rpm, for 5 minutes. Serum was collected and split into two aliquots and stored frozen (−80° C.) until analysis.
In this study, capsules of particulate materials (zoledronic:DL-lysine:water complex and excess pure DL-lysine).

[2] = according to FDA Summary Basis of Approval; cited from earlier work
[3] = iv, 0.12 mg/kg, Leg 38, 0.12 mg/kg IV, saline solution, read-out: Average serum concentration of 4 dogs
[4] = iv, 0.183 mg/kg, Leg 13, 0.183 mg/kg IV, saline solution, read-out: Average serum concentration of 5 dogs
[5] = po, Leg 19, 61.3 mg with 322.9 mg DL-lysine monohydrate, gelatin capsule, PO, read-out: Average serum concentration of 5 dogs
[6] = po, Leg 24, 64.0 mg with 374.8 mg L-lysine HCl, gelatin capsule, PO, read-out: Average serum concentration of 5 dogs

O=P(O)(O)C(O)(Cn1ccnc1)P(=O)(O)O [Zoledronic acid, (1-hydroxy-2-imidazol-1-yl-1-phosphono-ethyl)phosphonic acid]
concentration at 24 hour ([1]; iv, 0.05 mg/kg, zoledronic acid in dog serum, Leg 1, IV 0.05 mg/kg, saline solution, Time 24 hour, read-out: Average serum concentration of 5 dogs): 0 ng/mL | concentration at 48 hour ([1]; iv, 0.05 mg/kg, zoledronic acid in dog serum, Leg 1, IV 0.05 mg/kg, saline solution, Time 48 hour, read-out: Average serum concentration of 5 dogs): 0 ng/mL | concentration at 0 h [1, 3]: 0 ng/mL | concentration at 5 min [1, 3]: 288 ng/mL | concentration at 10 min [1, 3]: 542 ng/mL | concentration at 0.25 h [1, 3]: 711 ng/mL | concentration at 20 min [1, 3]: 529 ng/mL | concentration at 25 min [1, 3]: 406 ng/mL | concentration at 0.5 h [1, 3]: 358 ng/mL | concentration at 0.75 h [1, 3]: 240 ng/mL | concentration at 1 h [1, 3]: 174 ng/mL | concentration at 1.25 h [1, 3]: 121 ng/mL | concentration at 1.5 h [1, 3]: 90.6 ng/mL | concentration at 2 h [1, 3]: 55.7 ng/mL | concentration at 4 h [1, 3]: 15.1 ng/mL | concentration at 8 h [1, 3]: 5.74 ng/mL | concentration at 24 h [1, 3]: 2.49 ng/mL | concentration at 0 h [1, 4]: 0.64 ng/mL | concentration at 5 min [1, 4]: 477 ng/mL | concentration at 10 min [1, 4]: 756 ng/mL | concentration at 0.25 h [1, 4]: 1060 ng/mL | concentration at 20 min [1, 4]: 746 ng/mL | concentration at 25 min [1, 4]: 629 ng/mL | concentration at 0.5 h [1, 4]: 523 ng/mL | concentration at 0.75 h [1, 4]: 343 ng/mL | concentration at 1 h [1, 4]: 245 ng/mL | concentration at 1.25 h [1, 4]: 183 ng/mL | concentration at 1.5 h [1, 4]: 140 ng/mL | concentration at 2 h [1, 4]: 80.9 ng/mL | concentration at 4 h [1, 4]: 23.4 ng/mL | concentration at 8 h [1, 4]: 8.78 ng/mL | concentration at 24 h [1, 4]: 3.84 ng/mL | concentration at 0 h [1, 5]: 0 ng/mL | concentration at 5 min [1, 5]: 34.1 ng/mL | concentration at 10 min [1, 5]: 42.7 ng/mL | concentration at 0.25 h [1, 5]: 220 ng/mL | concentration at 0.5 h [1, 5]: 659 ng/mL | concentration at 0.75 h [1, 5]: 479 ng/mL | concentration at 1 h [1, 5]: 384 ng/mL | concentration at 1.5 h [1, 5]: 210 ng/mL | concentration at 2 h [1, 5]: 136 ng/mL | concentration at 4 h [1, 5]: 34.2 ng/mL | concentration at 8 h [1, 5]: 8.53 ng/mL | concentration at 24 h [1, 5]: 2.07 ng/mL | concentration at 0 h [1, 6]: 0 ng/mL | concentration at 5 min [1, 6]: 0 ng/mL | concentration at 10 min [1, 6]: 1.2 ng/mL | concentration at 0.25 h [1, 6]: 14.1 ng/mL | concentration at 0.5 h [1, 6]: 172 ng/mL | concentration at 0.75 h [1, 6]: 340 ng/mL | concentration at 1 h [1, 6]: 283 ng/mL | concentration at 1.5 h [1, 6]: 163 ng/mL | concentration at 2 h [1, 6]: 100 ng/mL | concentration at 4 h [1, 6]: 26.3 ng/mL | concentration at 8 h [1, 6]: 4.56 ng/mL | concentration at 24 h [1, 6]: 0.89 ng/mL | oral bioavailability [2]: approximately 1%
